This passage reports IC50 results from ChEMBL document CHEMBL1135339, “Structure-activity relationships of novel anti-malarial agents. Part 4: N-(3-benzoyl-4-tolylacetylaminophenyl)-3-(5-aryl-2-furyl)acrylic acid amides” (Bioorg Med Chem Lett, 2002).

This assay deals with Plasmodium falciparum. The assay can be described thus: Inhibitory concentration against multidrug-resistant Plasmodium falciparum Dd2. In kind it is functional, organism-based.

In general, IC50 refers to the point on the concentration scale where inhibition reaches its midpoint. Read a low IC50 as higher potency. As to `Cc1ccc(CC(=O)Nc2ccc(NC(=O)/C=C/c3ccc(-c4ccc(OC(F)(F)F)cc4)o3)cc2C(=O)c2ccccc2)cc1`, the IC50 is 0.21 µM.

In turn, `Cc1ccc(CC(=O)Nc2ccc(NC(=O)/C=C/c3ccc(-c4cccc([N+](=O)[O-])c4)o3)cc2C(=O)c2ccccc2)cc1` yielded an IC50 of 0.59 µM. Under `C=Cc1ccc(-c2ccc(/C=C/C(=O)Nc3ccc(NC(=O)Cc4ccc(C)cc4)c(C(=O)c4ccccc4)c3)o2)cc1` stands 0.085 µM; under `Cc1ccc(CC(=O)Nc2ccc(NC(=O)/C=C/c3ccc(-c4ccccc4[N+](=O)[O-])o3)cc2C(=O)c2ccccc2)cc1`, 0.67 µM; under `Cc1ccc(CC(=O)Nc2ccc(NC(=O)/C=C/c3ccc(-c4ccc(C)cc4)o3)cc2C(=O)c2ccccc2)cc1`, 0.12 µM. Under `Cc1ccc(CC(=O)Nc2ccc(NC(=O)/C=C/c3ccc(-c4ccc(Br)cc4)o3)cc2C(=O)c2ccccc2)cc1` stands 0.125 µM; under `Cc1ccc(CC(=O)Nc2ccc(NC(=O)/C=C/c3ccc(-c4ccc(F)cc4)o3)cc2C(=O)c2ccccc2)cc1`, 0.32 µM; under `CCOc1ccc(-c2ccc(/C=C/C(=O)Nc3ccc(NC(=O)Cc4ccc(C)cc4)c(C(=O)c4ccccc4)c3)o2)cc1`, 0.3 µM. Consider `Cc1ccc(CC(=O)Nc2ccc(NC(=O)/C=C/c3ccc(-c4ccc([N+](=O)[O-])cc4)o3)cc2C(=O)c2ccccc2)cc1`, for which the IC50 stood at 0.075 µM. The result for `Cc1ccc(CC(=O)Nc2ccc(NC(=O)/C=C/c3ccc(-c4ccc5ccccc5c4)o3)cc2C(=O)c2ccccc2)cc1` reads 0.2 µM; that for `COc1ccc(-c2ccc(/C=C/C(=O)Nc3ccc(NC(=O)Cc4ccc(C)cc4)c(C(=O)c4ccccc4)c3)o2)cc1`, 0.13 µM. The result for `CCCOc1ccc(-c2ccc(/C=C/C(=O)Nc3ccc(NC(=O)Cc4ccc(C)cc4)c(C(=O)c4ccccc4)c3)o2)cc1` reads 0.75 µM; that for `Cc1ccc(CC(=O)Nc2ccc(NC(=O)/C=C/c3ccc(-c4ccc(C(C)(C)C)cc4)o3)cc2C(=O)c2ccccc2)cc1`, 0.3 µM; that for `Cc1ccc(CC(=O)Nc2ccc(NC(=O)/C=C/c3ccc(-c4ccc(Cl)cc4)o3)cc2C(=O)c2ccccc2)cc1`, 0.145 µM. The result for `CCc1ccc(-c2ccc(/C=C/C(=O)Nc3ccc(NC(=O)Cc4ccc(C)cc4)c(C(=O)c4ccccc4)c3)o2)cc1` reads 0.088 µM; that for `Cc1ccc(CC(=O)Nc2ccc(NC(=O)/C=C/c3ccc(-c4cccc5ccccc45)o3)cc2C(=O)c2ccccc2)cc1`, 1 µM; that for `Cc1ccc(CC(=O)Nc2ccc(NC(=O)/C=C/c3ccc(-c4ccccc4)o3)cc2C(=O)c2ccccc2)cc1`, 0.415 µM. Consider `CSc1ccc(-c2ccc(/C=C/C(=O)Nc3ccc(NC(=O)Cc4ccc(C)cc4)c(C(=O)c4ccccc4)c3)o2)cc1`, for which it took 0.084 µM to reach half-maximal inhibition (IC50).
